Columns and labels:
Assay in all cases: relative viability (nuclei count vs DMSO), 5 days (fraction); higher = more cells survive
BMX-IN-1 + Lapatinib = compound: C=CC(=O)Nc1cc(-n2c(=O)ccc3cnc4ccc(-c5ccc(NS(C)(=O)=O)cc5)cc4c32)ccc1C [BMX-IN-1] + CS(=O)(=O)CCNCc1ccc(-c2ccc3ncnc(Nc4ccc(OCc5cccc(F)c5)c(Cl)c4)c3c2)o1 [Lapatinib] (partner 2 µM)
Summary of the method: (§1)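 Nuclei were stained with Hoechst during a one-step fixation (final 0.05% Triton X-100, 1% formaldehyde, 1 ug/ml Hoechst) carried out 5 days after dosing, then counted on 4× images. The cells, lung cancer lines in 1536-well plates, had been dosed by pin tool the day after seeding with one drug alone or a fixed anchor-drug dose plus five library-drug doses (not always all listed) in √10 steps. Relative viability is the nuclei count in treated wells divided by that in vehicle wells, and each value is the median of duplicate plates.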

Ibrutinib + Pictilisib = compound: C=CC(=O)N1CCC[C@@H](n2nc(-c3ccc(Oc4ccccc4)cc3)c3c(N)ncnc32)C1 [Ibrutinib] + CS(=O)(=O)N1CCN(Cc2cc3nc(-c4cccc5[nH]ncc45)nc(N4CCOCC4)c3s2)CC1 [Pictilisib] (partner 1 µM)
Summary of the method: as §1

Ibrutinib + Crizotinib = compound: C=CC(=O)N1CCC[C@@H](n2nc(-c3ccc(Oc4ccccc4)cc3)c3c(N)ncnc32)C1 [Ibrutinib] + C[C@@H](Oc1cc(-c2cnn(C3CCNCC3)c2)cnc1N)c1c(Cl)ccc(F)c1Cl [Crizotinib] (partner 1 µM)
Summary of the method: as §1

BMX-IN-1 + Olaparib = compound: C=CC(=O)Nc1cc(-n2c(=O)ccc3cnc4ccc(-c5ccc(NS(C)(=O)=O)cc5)cc4c32)ccc1C [BMX-IN-1] + O=C(c1cc(Cc2n[nH]c(=O)c3ccccc23)ccc1F)N1CCN(C(=O)C2CC2)CC1 [Olaparib] (partner 8 µM)
Summary of the method: as §1

Row | Cell Line | relative viability (BMX-IN-1 + Lapatinib; first compound 0.02 µM) | relative viability (BMX-IN-1 + Lapatinib; first compound 0.2 µM) | relative viability (BMX-IN-1 + Lapatinib; first compound 0.6325 µM) | relative viability (BMX-IN-1 + Lapatinib; first compound 2 µM) | relative viability (Ibrutinib + Pictilisib; first compound 0.005 µM) | relative viability (Ibrutinib + Pictilisib; first compound 0.01581 µM) | relative viability (Ibrutinib + Pictilisib; first compound 0.05 µM) | relative viability (Ibrutinib + Pictilisib; first compound 0.1581 µM) | relative viability (Ibrutinib + Pictilisib; first compound 0.5 µM) | relative viability (Ibrutinib + Crizotinib; first compound 0.005 µM) | relative viability (Ibrutinib + Crizotinib; first compound 0.01581 µM) | relative viability (Ibrutinib + Crizotinib; first compound 0.05 µM) | relative viability (Ibrutinib + Crizotinib; first compound 0.1581 µM) | relative viability (Ibrutinib + Crizotinib; first compound 0.5 µM) | relative viability (BMX-IN-1 + Olaparib; first compound 0.02 µM) | relative viability (BMX-IN-1 + Olaparib; first compound 0.2 µM) | relative viability (BMX-IN-1 + Olaparib; first compound 0.6325 µM) | relative viability (BMX-IN-1 + Olaparib; first compound 2 µM)
1 | UMC-11 | 1.1 | 1.1 | 1.28 | 1.1 | 0.31 | 0.781 | 0.795 | 0.777 | 0.784 | 0.538 | 0.598 | 0.596 | 0.681 | 0.57 | 0.402 | 0.389 | 0.364 | 0.364
2 | NCI-H1755 | 1.2 | 1.02 | 1.09 | 1.02 | 0.418 | 0.421 | 0.424 | 0.389 | 0.362 | 0.832 | – | 0.909 | 0.909 | 0.852 | 0.903 | 0.941 | 1.01 | 0.873
3 | NCI-H1666 | 0.772 | 0.626 | 0.663 | 0.444 | 0.388 | 0.358 | 0.31 | 0.409 | 0.235 | 1.01 | 0.864 | 0.904 | 0.932 | 0.697 | 0.753 | 0.806 | 0.631 | 0.769
4 | NCI-H23 | 1.04 | 1.24 | 1.01 | 1 | 0.319 | 0.458 | 0.562 | 0.391 | 0.395 | 0.539 | 0.528 | 0.527 | 0.592 | 0.466 | 0.304 | 0.415 | 0.312 | 0.229
5 | COR-L23 | 1.65 | 1.47 | 1.17 | 0.941 | 0.626 | 0.742 | 0.885 | 0.925 | 0.729 | 0.707 | 0.641 | 0.693 | 0.644 | 0.653 | 0.286 | 0.373 | 0.439 | 0.327
6 | PC-14 | 0.356 | 0.321 | 0.338 | 0.258 | 0.72 | 0.621 | 0.558 | 0.88 | 0.101 | 0.886 | 0.968 | 0.896 | 0.901 | 0.563 | 0.265 | 0.265 | 0.297 | 0.266
7 | LCLC-97TM1 | 0.862 | 1.24 | 1.41 | 0.816 | 0.114 | 0.203 | 0.263 | 0.156 | 0.18 | 0.365 | 0.369 | – | 0.553 | 0.313 | 0.383 | 0.597 | 0.413 | 0.367
8 | HOP-62 | 1.05 | 1.16 | 0.955 | 1.04 | 0.379 | 0.506 | 0.67 | 0.626 | 0.877 | 0.988 | 0.947 | 1 | 0.948 | – | 0.403 | 0.485 | 0.33 | 0.379
9 | NCI-H727 | 0.841 | 1.01 | 0.887 | 0.939 | 0.253 | 0.471 | 0.246 | 0.298 | 0.343 | 0.74 | 0.616 | 0.71 | 0.868 | 0.617 | 0.555 | 0.642 | 0.703 | 0.688
